Molecular target: T1, fMet-Leu-Phe receptor (Homo sapiens, UniProt P21462)
T1 sequence (P21462 whole entry): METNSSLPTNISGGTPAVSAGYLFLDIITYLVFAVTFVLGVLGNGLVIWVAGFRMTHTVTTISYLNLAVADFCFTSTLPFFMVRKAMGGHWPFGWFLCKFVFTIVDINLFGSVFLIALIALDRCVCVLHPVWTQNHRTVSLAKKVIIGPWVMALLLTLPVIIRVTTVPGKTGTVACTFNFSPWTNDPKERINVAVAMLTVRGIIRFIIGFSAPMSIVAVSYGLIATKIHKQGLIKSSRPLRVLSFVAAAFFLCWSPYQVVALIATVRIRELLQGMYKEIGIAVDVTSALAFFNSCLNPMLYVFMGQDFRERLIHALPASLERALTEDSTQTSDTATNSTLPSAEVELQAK
Assay: FPR1 fluorescent ligand binding inhibitors, dose response, cell-based, flow cytometry, Ki from IC50 (AID 724)

Compared with `COc1ccc(OC)c(C2C(C(=O)c3ccccc3)C(=O)C(=O)N2c2ccc(C)c(Cl)c2)c1` (stereo not given) [(4E)-1-(3-chloranyl-4-methyl-phenyl)-5-(2,5-dimethoxyphenyl)-4-[oxidanyl(phenyl)methylidene]pyrrolidine-2,3-dione], `COc1ccc(C2C(C(=O)c3ccccc3)C(=O)C(=O)N2c2cccc(Cl)c2)c(OC)c1` (stereo not given) [(4E)-1-(3-chlorophenyl)-5-(2,4-dimethoxyphenyl)-4-[hydroxy(phenyl)methylene]pyrrolidine-2,3-quinone] is 1.8-fold higher in IC50: 25.7 µM for the first, 47.5 µM for the second.

Going from `COc1ccc(C2C(C(=O)c3ccco3)C(=O)C(=O)N2CCN2CCOCC2)c(OC)c1` (stereo not given) [5-(2,4-dimethoxyphenyl)-4-(furan-2-carbonyl)-3-hydroxy-1-(2-morpholinoethyl)-1H-pyrrol-2(5H)-one] to `COc1ccc(C2C(C(=O)c3cccs3)C(=O)C(=O)N2CCN2CCOCC2)c(OC)c1` (stereo not given) [2-(2,4-dimethoxyphenyl)-1-(2-morpholin-4-ylethyl)-4-oxidanyl-3-thiophen-2-ylcarbonyl-2H-pyrrol-5-one], the IC50 falls from 9.8 µM to 4.4 µM (2.2-fold). The second is the more potent here.

First: COc1ccc(OC)c(C2C(C(=O)c3ccccc3)C(=O)C(=O)N2c2cccnc2)c1 (stereo not given) [(4E)-5-(2,5-dimethoxyphenyl)-4-[hydroxy(phenyl)methylene]-1-(3-pyridyl)pyrrolidine-2,3-quinone]
Second: COCCN1C(=O)C(=O)C(C(=O)c2ccccc2)C1c1cc(OC)ccc1OC (stereo not given) [(4E)-5-(2,5-dimethoxyphenyl)-1-(2-methoxyethyl)-4-[oxidanyl(phenyl)methylidene]pyrrolidine-2,3-dione]
The IC50 of the first is 3.3-fold higher: 9.2 µM for the first, 2.8 µM for the second. The second is the more potent here.

First: COCCCN1C(=O)C(=O)C(C(=O)c2ccccc2)C1c1ccc(O)c(OC)c1 (stereo not given) [(4E)-5-(3-methoxy-4-oxidanyl-phenyl)-1-(3-methoxypropyl)-4-[oxidanyl(phenyl)methylidene]pyrrolidine-2,3-dione]
Second: CCCCCCN1C(=O)C(=O)C(C(=O)c2ccccc2)C1c1ccc(O)c(OC)c1 (stereo not given) [(4Z)-1-hexyl-5-(3-methoxy-4-oxidanyl-phenyl)-4-[oxidanyl(phenyl)methylidene]pyrrolidine-2,3-dione]
The IC50 of the first is 7-fold higher: 50.5 µM for the first, 7.2 µM for the second.

Compared with `O=C1C(=O)N(CCc2ccccc2)C(c2ccc(Cl)cc2)C1C(=O)c1cccs1` (stereo not given) [2-(4-chlorophenyl)-4-hydroxy-1-(2-phenylethyl)-3-(thiophene-2-carbonyl)-2H-pyrrol-5-one], `CC(C)c1ccc(C2C(C(=O)c3ccccc3)C(=O)C(=O)N2Cc2cccnc2)cc1` (stereo not given) [(4E)-4-[hydroxy(phenyl)methylene]-5-p-cumenyl-1-(3-pyridylmethyl)pyrrolidine-2,3-quinone] is 4.8-fold higher in IC50: 10.6 µM for the first, 50.7 µM for the second.

Going from `CC(=O)C1C(=O)C(=O)N(CCc2c(C)[nH]c3ccccc23)C1c1cccc(F)c1` (stereo not given) to `COCCCN1C(=O)C(=O)C(C(=O)c2ccccc2)C1c1ccc(C(C)C)cc1` (stereo not given) [(4E)-1-(3-methoxypropyl)-4-[oxidanyl(phenyl)methylidene]-5-(4-propan-2-ylphenyl)pyrrolidine-2,3-dione], the IC50 rises from 17.2 µM to 31.1 µM (1.8-fold).

`COc1ccc(C2C(C(=O)c3ccccc3)C(=O)C(=O)N2CCCn2ccnc2)c(OC)c1` (stereo not given) [(4E)-5-(2,4-dimethoxyphenyl)-1-(3-imidazol-1-ylpropyl)-4-[oxidanyl(phenyl)methylidene]pyrrolidine-2,3-dione] and `COc1ccc(C2C(C(=O)c3cccs3)C(=O)C(=O)N2CCCn2ccnc2)cc1` (stereo not given) [1-(3-imidazol-1-ylpropyl)-2-(4-methoxyphenyl)-4-oxidanyl-3-thiophen-2-ylcarbonyl-2H-pyrrol-5-one] are within 1.5-fold of each other in IC50: 5.2 µM for the first, 7.1 µM for the second.

For `COc1ccc(C2C(C(=O)c3ccc(C)cc3)C(=O)C(=O)N2Cc2cccnc2)c(OC)c1` (stereo not given) [(4E)-5-(2,4-dimethoxyphenyl)-4-[(4-methylphenyl)-oxidanyl-methylidene]-1-(pyridin-3-ylmethyl)pyrrolidine-2,3-dione], the IC50 was 59.7 µM.

Reference: BindingDB's records for doi:10.7270/Q2TB1590 (Nmmlsc, 2007)
